Results reported in ChEMBL document CHEMBL1201862, “PubChem BioAssay data set” (2004).
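A five-concentration, 48-hour dose response in 96-well plates underlies each endpoint, interpolated linearly between surrounding concentrations. Abbreviation: GI50, concentration required for 50% inhibition of growth.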 Active and inactive are the calls of the source. Rule as the data show it: active = GI50 up to about 1.1 µM and inactive = higher.

Assays:
Experiment in all cases: NCI tumour cell line growth inhibition, 48 h
DU-145 = test system: DU-145
OVCAR-4 = test system: OVCAR-4
EKVX = test system: EKVX
SN12C = test system: SN12C
NCI-H23 = test system: NCI-H23
TK-10 = test system: TK-10
HCC 2998 = test system: HCC 2998
KM12 = test system: KM12
SK-MEL-28 = test system: SK-MEL-28
A549 = test system: A549
COLO 205 = test system: COLO 205
OVCAR-5 = test system: OVCAR-5
MCF7 = test system: MCF7
HL-60 = test system: HL-60
UACC-62 = test system: UACC-62
IGROV-1 = test system: IGROV-1
HCT-15 = test system: HCT-15
T47D = test system: T47D
SF-268 = test system: SF-268
A498 = test system: A498

Structure (SMILES)	GI50 (DU-145)	GI50 (OVCAR-4)	GI50 (EKVX)	GI50 (SN12C)	GI50 (NCI-H23)	GI50 (TK-10)	GI50 (HCC 2998)	GI50 (KM12)	GI50 (SK-MEL-28)	GI50 (A549)	GI50 (COLO 205)	GI50 (OVCAR-5)	GI50 (MCF7)	GI50 (HL-60)	GI50 (UACC-62)	GI50 (IGROV-1)	GI50 (HCT-15) [µM]	GI50 (T47D)	GI50 (SF-268)	GI50 (A498)
CCN(CC)c1ccc(C(=C2C=CC(=[N+](CC)CC)C=C2)c2ccc(N(CC)CC)cc2)cc1	0.0708 µM (active)	0.234 µM (active)	0.244 µM (active)	0.0522 µM (active)	0.0773 µM (active)	0.214 µM (active)	0.186 µM (active)	0.0561 µM (active)	0.489 µM (active)	0.04 µM (active)	0.0627 µM (active)	0.303 µM (active)	0.158 µM (active)	0.0303 µM (active)	0.219 µM (active)	0.146 µM (active)	0.194	0.106 µM (active)	0.084 µM (active)	–
C/C=C/C[C@@H](C)C(=O)C1C(=O)N[C@@H](C(C)C)C(=O)N(C)CC(=O)N(C)[C@@H](CC(C)C)C(=O)N[C@@H](C(C)C)C(=O)N(C)[C@@H](CC(C)C)C(=O)N[C@@H](C)C(=O)N[C@@H](C)C(=O)N(C)[C@@H](CC(C)C)C(=O)N(C)[C@@H](CC(C)C)C(=O)N(C)[C@@H](C(C)C)C(=O)N1C (some centres undefined)	4.06 µM (inactive)	2.74 µM (inactive)	8.51 µM (inactive)	5.58 µM (inactive)	7.83 µM (inactive)	6.1 µM (inactive)	2.46 µM (inactive)	3.67 µM (inactive)	6.37 µM (inactive)	3.97 µM (inactive)	–	7.87 µM (inactive)	3.95 µM (inactive)	2.8 µM (inactive)	4.5 µM (inactive)	–	5.51	3.03 µM (inactive)	7.89 µM (inactive)	–
CCCCC(=O)/C=c1/cc(C)[nH]c2cccc3cnn1c32	> 100 µM (inactive)	> 100 µM (inactive)	> 100 µM (inactive)	> 100 µM (inactive)	> 100 µM (inactive)	> 100 µM (inactive)	–	> 100 µM (inactive)	> 100 µM (inactive)	> 100 µM (inactive)	> 100 µM (inactive)	> 100 µM (inactive)	> 100 µM (inactive)	> 100 µM (inactive)	> 100 µM (inactive)	> 100 µM (inactive)	> 100	16 µM (inactive)	> 100 µM (inactive)	> 100 µM (inactive)
CC1(C)CC(=O)C(=CNc2nc(-c3ccccc3)cs2)C(=O)C1	57 µM (inactive)	69.5 µM (inactive)	26.2 µM (inactive)	39.2 µM (inactive)	32.4 µM (inactive)	24 µM (inactive)	31.2 µM (inactive)	32.1 µM (inactive)	26.7 µM (inactive)	49 µM (inactive)	33 µM (inactive)	> 100 µM (inactive)	29.2 µM (inactive)	47.9 µM (inactive)	–	26.6 µM (inactive)	20.2	32.7 µM (inactive)	–	–
CC(C)(CO)N1C(=O)c2ccccc2C1(O)c1ccc(Cl)cc1 (centres undefined)	> 100 µM (inactive)	94 µM (inactive)	> 100 µM (inactive)	> 100 µM (inactive)	> 100 µM (inactive)	> 100 µM (inactive)	> 100 µM (inactive)	> 100 µM (inactive)	> 100 µM (inactive)	> 100 µM (inactive)	> 100 µM (inactive)	> 100 µM (inactive)	> 100 µM (inactive)	> 100 µM (inactive)	> 100 µM (inactive)	> 100 µM (inactive)	> 100	72.3 µM (inactive)	> 100 µM (inactive)	–
C/C(=C\CO)CC/C=C(\C)CNc1ccc([N+](=O)[O-])cc1	50.4 µM (inactive)	2.98 µM (inactive)	24.8 µM (inactive)	60.8 µM (inactive)	2.57 µM (inactive)	7.67 µM (inactive)	–	16.1 µM (inactive)	28.4 µM (inactive)	34.2 µM (inactive)	36.6 µM (inactive)	41.7 µM (inactive)	40.6 µM (inactive)	19.6 µM (inactive)	27.5 µM (inactive)	28.8 µM (inactive)	30.1	11.6 µM (inactive)	63.5 µM (inactive)	–
CCOC(=O)C(C/C=C/CO)N(C)C(=O)OC(C)(C)C (centres undefined)	> 100 µM (inactive)	> 100 µM (inactive)	> 100 µM (inactive)	> 100 µM (inactive)	> 100 µM (inactive)	> 100 µM (inactive)	–	> 100 µM (inactive)	> 100 µM (inactive)	> 100 µM (inactive)	> 100 µM (inactive)	> 100 µM (inactive)	> 100 µM (inactive)	> 100 µM (inactive)	> 100 µM (inactive)	> 100 µM (inactive)	> 100	> 100 µM (inactive)	92.9 µM (inactive)	> 100 µM (inactive)
C/C(=N\n1c(Cc2ccccc2)n[nH]c1=O)c1ccccc1	> 100 µM (inactive)	> 100 µM (inactive)	94.4 µM (inactive)	> 100 µM (inactive)	> 100 µM (inactive)	> 100 µM (inactive)	–	> 100 µM (inactive)	> 100 µM (inactive)	> 100 µM (inactive)	> 100 µM (inactive)	> 100 µM (inactive)	> 100 µM (inactive)	> 100 µM (inactive)	> 100 µM (inactive)	> 100 µM (inactive)	> 100	> 100 µM (inactive)	> 100 µM (inactive)	> 100 µM (inactive)
COc1ccc2c3c1O[C@H]1[C@@H](O)CC[C@@]4(O)[C@@H](C2)N(C)CC[C@]314	> 100 µM (inactive)	> 100 µM (inactive)	> 100 µM (inactive)	> 100 µM (inactive)	> 100 µM (inactive)	> 100 µM (inactive)	–	> 100 µM (inactive)	> 100 µM (inactive)	> 100 µM (inactive)	> 100 µM (inactive)	> 100 µM (inactive)	> 100 µM (inactive)	2.93 µM (inactive)	> 100 µM (inactive)	> 100 µM (inactive)	> 100	> 100 µM (inactive)	> 100 µM (inactive)	> 100 µM (inactive)
CCCCCCc1cc2cc(-c3csc(-c4ccc(OC)cc4)n3)c(=O)oc2cc1O	11.7 µM (inactive)	2.48 µM (inactive)	20.2 µM (inactive)	10.4 µM (inactive)	–	14 µM (inactive)	15.3 µM (inactive)	24.8 µM (inactive)	10.2 µM (inactive)	16.7 µM (inactive)	51.8 µM (inactive)	26.7 µM (inactive)	17.8 µM (inactive)	33.3 µM (inactive)	6.55 µM (inactive)	5.45 µM (inactive)	17.1	7.82 µM (inactive)	4.79 µM (inactive)	–
NC(=O)NC(=O)C1CCCCC1C(=O)O (centres undefined)	> 100 µM (inactive)	> 100 µM (inactive)	> 100 µM (inactive)	> 100 µM (inactive)	> 100 µM (inactive)	> 100 µM (inactive)	–	> 100 µM (inactive)	> 100 µM (inactive)	> 100 µM (inactive)	> 100 µM (inactive)	> 100 µM (inactive)	> 100 µM (inactive)	> 100 µM (inactive)	> 100 µM (inactive)	> 100 µM (inactive)	> 100	> 100 µM (inactive)	> 100 µM (inactive)	> 100 µM (inactive)
CCOc1ccc(N/C(=C(/C(Cl)=C(/Cl)Nc2ccccc2)[N+](=O)[O-])n2nnc3ccccc32)cc1	45.9 µM (inactive)	42.5 µM (inactive)	28.8 µM (inactive)	20.8 µM (inactive)	13.7 µM (inactive)	32.9 µM (inactive)	37.7 µM (inactive)	32.7 µM (inactive)	22.8 µM (inactive)	29.1 µM (inactive)	20.7 µM (inactive)	35.5 µM (inactive)	35.7 µM (inactive)	–	17.8 µM (inactive)	–	12.8	40.5 µM (inactive)	18.6 µM (inactive)	> 100 µM (inactive)
COc1ccc(N(c2ccc(C#N)cc2)c2ccc(C#N)cc2)cc1	> 100 µM (inactive)	> 100 µM (inactive)	> 100 µM (inactive)	> 100 µM (inactive)	29.4 µM (inactive)	> 100 µM (inactive)	–	8.43 µM (inactive)	> 100 µM (inactive)	> 100 µM (inactive)	31.9 µM (inactive)	> 100 µM (inactive)	26 µM (inactive)	3.97 µM (inactive)	> 100 µM (inactive)	23.7 µM (inactive)	75.2	4.57 µM (inactive)	> 100 µM (inactive)	65.3 µM (inactive)
C/C=C/C=C\C=C/C(O)C(C)C(CCC(C)C1OC(=O)C=CC1C)OP(=O)(O)O (centres undefined)	0.399 µM (active)	1.23 µM (inactive)	0.447 µM (active)	0.323 µM (active)	1.52 µM (inactive)	0.618 µM (active)	–	0.318 µM (active)	0.804 µM (active)	0.538 µM (active)	0.268 µM (active)	0.263 µM (active)	0.272 µM (active)	0.0425 µM (active)	0.319 µM (active)	0.275 µM (active)	0.445	0.386 µM (active)	0.59 µM (active)	0.22 µM (active)
CC1(C)CCC2=C(O1)c1ccccc1C(=O)C2=O [LAPACHONE]	0.64 µM (active)	0.684 µM (active)	1.72 µM (inactive)	0.51 µM (active)	0.427 µM (active)	2.24 µM (inactive)	–	1.36 µM (inactive)	–	0.753 µM (active)	1.91 µM (inactive)	0.571 µM (active)	0.455 µM (active)	–	0.475 µM (active)	–	–	0.411 µM (active)	0.682 µM (active)	5.42 µM (inactive)
